target: T1, human progesterone receptor-A [PRA] isoform (Homo sapiens, UniProt P06401); assay: Radioligand binding with human progesterone receptor cytosol ([3H]-progesterone competition); details: PRA cytosol expressed in insect SF21 cells, [3H]Prog ~0.8 nM, 4° C. overnight; Ki by Cheng-Prusoff, KL ~4.5 nM; read-out: Ki (nM) PR
T1 construct: host or cells: insect SF21 cells (baculovirus)
T1 sequence (P06401 1-769 isoform P06401-2): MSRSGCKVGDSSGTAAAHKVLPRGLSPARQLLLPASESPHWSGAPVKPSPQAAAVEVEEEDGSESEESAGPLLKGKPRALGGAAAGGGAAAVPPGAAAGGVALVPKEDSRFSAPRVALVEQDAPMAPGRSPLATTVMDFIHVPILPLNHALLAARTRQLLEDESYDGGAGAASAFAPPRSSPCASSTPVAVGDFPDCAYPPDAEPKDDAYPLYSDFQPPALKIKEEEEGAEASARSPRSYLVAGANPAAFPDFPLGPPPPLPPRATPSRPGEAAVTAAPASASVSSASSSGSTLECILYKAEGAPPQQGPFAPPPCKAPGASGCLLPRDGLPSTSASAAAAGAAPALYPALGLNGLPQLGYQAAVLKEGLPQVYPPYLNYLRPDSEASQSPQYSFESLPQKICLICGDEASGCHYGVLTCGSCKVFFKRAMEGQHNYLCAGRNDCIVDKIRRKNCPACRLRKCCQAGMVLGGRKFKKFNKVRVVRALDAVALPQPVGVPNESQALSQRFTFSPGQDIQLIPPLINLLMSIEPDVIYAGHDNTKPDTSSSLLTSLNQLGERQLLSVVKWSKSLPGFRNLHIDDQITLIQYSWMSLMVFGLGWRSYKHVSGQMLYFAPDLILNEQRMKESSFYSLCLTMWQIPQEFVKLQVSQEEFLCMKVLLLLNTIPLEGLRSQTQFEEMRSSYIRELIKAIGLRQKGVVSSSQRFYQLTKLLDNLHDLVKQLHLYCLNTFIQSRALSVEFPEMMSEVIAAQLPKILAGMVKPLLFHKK

Row | SMILES | Ki [nM]
1 | CCCCC1Oc2cccc(OC)c2-c2ccc3c(c21)C(C)=CC(C)(C)N3 (stereo not shown) [Example 20, 5-Butyl-2,5-dihydro-10-methoxy-2,2,4-trimethyl-1H-[1]benzopyrano[3,4-f]quinoline] | 1680
2 | CCC1([C@@H]2Oc3ccc(O)c(OC)c3-c3ccc4c(c32)C(C)=CC(C)(C)N4)CC=CCC1 (single isomer, unassigned; (-)) [Example 263] | 59.6
3 | C=CCNc1cccc(C2Oc3cccc(OC)c3-c3ccc4c(c32)C(C)=CC(C)(C)N4)c1 (stereo not shown) [Example 117, 3-(2,5-Dihydro-10-methoxy-2,2,4-trimethyl-1H-[1]benzopyrano[3,4-f]quinolin-5-yl)-N-(2-propenyl)benzenamine] | ≥ 10000
4 | COc1cccc2c1-c1ccc3c(c1C(c1cc(Cl)cc(Cl)c1)O2)C(C)=CC(C)(C)N3 (single isomer, unassigned; (+)) [Example 33, (+)-5-(3,5-Dichlorophenyl)-2,5-dihydro-10-methoxy-2,2,4-trimethyl-1H-[1]benzopyrano[3,4-f]quinoline] | 8320
5 | C=C(CC1Oc2cccc(OC)c2-c2ccc3c(c21)C(C)=CC(C)(C)N3)C(=O)OC (stereo not shown) [Example 173, 2,5-Dihydro-10-methoxy-5-(2-carbomethoxy-3-propenyl)-2,2,4-trimethyl-1H-[1]benzopyrano[3,4-f]quinoline] | ≥ 10000
6 | COc1c(O)ccc2c1-c1ccc3c(c1C(Cc1cc(F)cc(F)c1)O2)C(C)=CC(C)(C)N3 (stereo not shown) [Example 382, 2,5-Dihydro-9-hydroxy-10-methoxy-2,2,4-trimethyl-5-(3-5-difluorophenylmethyl)-1H-[1]benzopyrano[3,4-f]quinoline] | 150
7 | C=CCC1Oc2ccc(OC(=O)CCC(=O)N(C)C)c(Cl)c2-c2ccc3c(c21)C(C)=CC(C)(C)N3 (racemic) [Example 421, (+/−)2,5-Dihydro-9-(4-N,N-dimethylamino-4-oxo-butanoyloxy)-10-chloro-2,2,4-trimethyl-5-allyl-1H-[1]benzopyrano[3,4-f]quinoline] | 11.6
8 | C=C(Br)CC1Oc2cccc(OC)c2-c2ccc3c(c21)C(C)=CC(C)(C)N3 (stereo not shown) [Example 147, 2,5-Dihydro-10-methoxy-5-(2-bromo-3-propenyl)-2,2,4-trimethyl-1H-[1]benzopyrano[3,4-f]quinoline] | 9300
9 | COc1cccc2c1-c1ccc3c(c1C(C1C=CCCCC1)O2)C(C)=CC(C)(C)N3 (mixture of isomers) [Example 144] | ≥ 10000
10 | C=CCC1Oc2cccc(Cl)c2-c2ccc3c(c21)C(C)=CC(C)(C)N3 (stereo not shown) [Example 309, 10-Chloro-5-(3-propenyl)-2,2,4-trimethyl-2,5-dihydro-1H-[1]benzopyrano[3,4-f]quinoline] | 60.7

Reference: patent publication US6506766B1 (Abbott Laboratories, priority 1998, dated 2003)
